Laboratory results from ChEMBL document CHEMBL1201862, “PubChem BioAssay data set” (2004).
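Five compound concentrations were applied to cells in 96-well plates for 48 hours; endpoints were derived by simple linear interpolation of the resulting dose-response curve. GI50 marks 50% less growth.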 Activity calls are given as the source filed them. Cut-off read from the data, not from the text of the source: active = GI50 up to about 1.1 µM and inactive = higher.

Columns and labels:
Assay in all cases: NCI-60 cell line screen, 48 h
SNB-75 = test system: SNB-75
K562 = test system: K562
LOX IMVI = test system: LOX IMVI
CAKI-1 = test system: CAKI-1
NCI-H226 = test system: NCI-H226
786-0 = test system: 786-0
NCI-H460 = test system: NCI-H460
SW-620 = test system: SW-620
HCT-15 = test system: HCT-15
SK-MEL-2 = test system: SK-MEL-2
SF-295 = test system: SF-295
Malme-3M = test system: Malme-3M
HOP-62 = test system: HOP-62
HL-60 = test system: HL-60
UACC-62 = test system: UACC-62
HOP-92 = test system: HOP-92
COLO 205 = test system: COLO 205
DU-145 = test system: DU-145
Hs-578T = test system: Hs-578T
UO-31 = test system: UO-31

Measured: GI50

O=C1C(Cl)=C(N2CCN(CCOCCO)CC2)C(=O)c2ncccc21
inactive: SNB-75 > 10 µM | K562 > 10 µM | LOX IMVI > 10 µM | CAKI-1 > 10 µM | NCI-H226 > 10 µM | 786-0 > 10 µM | NCI-H460 > 10 µM | SW-620 > 10 µM | SK-MEL-2 > 10 µM | SF-295 > 10 µM | Malme-3M 7.85 µM | HOP-62 > 10 µM | HL-60 3.35 µM | UACC-62 > 10 µM | HOP-92 1.63 µM | COLO 205 > 10 µM | DU-145 > 10 µM | Hs-578T > 10 µM
> 10 µM: HCT-15

N#C/C(=C\NC(=S)c1ccncc1)c1nc2ccccc2s1
inactive: SNB-75 68.1 µM | K562 > 100 µM | LOX IMVI > 100 µM | CAKI-1 > 100 µM | UO-31 > 100 µM | NCI-H226 > 100 µM | 786-0 > 100 µM | NCI-H460 68.7 µM | SW-620 > 100 µM | SK-MEL-2 82.2 µM | SF-295 > 100 µM | HOP-62 > 100 µM | HL-60 > 100 µM | UACC-62 > 100 µM | HOP-92 > 100 µM | COLO 205 > 100 µM | DU-145 > 100 µM | Hs-578T > 100 µM
> 100 µM: HCT-15

COc1ccccc1NC(=O)CC(=O)N1N=C(C)C(/N=N/c2ccc(C(=O)O)cc2)C1=O (configuration not stated)
inactive: SNB-75 2.24 µM | K562 > 100 µM | LOX IMVI > 100 µM | CAKI-1 > 100 µM | UO-31 > 100 µM | 786-0 > 100 µM | SW-620 > 100 µM | SK-MEL-2 > 100 µM | SF-295 > 100 µM | Malme-3M > 100 µM | HOP-62 > 100 µM | HL-60 > 100 µM | UACC-62 > 100 µM | HOP-92 28.2 µM | COLO 205 > 100 µM | DU-145 > 100 µM | Hs-578T > 100 µM
> 100 µM: HCT-15

CC1CN=C(N(Cc2ccccc2)C(=O)Nc2ccc(Cl)c(Cl)c2)S1 (configuration not stated)
inactive: SNB-75 35.6 µM | K562 21.1 µM | LOX IMVI 21.4 µM | CAKI-1 36.1 µM | UO-31 25.8 µM | 786-0 30.5 µM | NCI-H460 35.7 µM | SW-620 43.5 µM | SK-MEL-2 23.4 µM | SF-295 > 10 µM | Malme-3M 99.3 µM | HOP-62 87.5 µM | HL-60 > 10 µM | HOP-92 21.6 µM | COLO 205 31.4 µM | DU-145 42.7 µM | Hs-578T 53.1 µM
15.7 µM: HCT-15

CCC(=O)Nc1cccc(NC(=O)c2c(Cl)c(Cl)c(Cl)c(Cl)c2-c2nc3ccccc3[nH]2)c1
active: SF-295 0.0417 µM
inactive: SNB-75 3.94 µM | K562 25.4 µM | LOX IMVI 77.4 µM | CAKI-1 82.4 µM | UO-31 21.7 µM | 786-0 84.9 µM | NCI-H460 37.8 µM | SW-620 > 100 µM | SK-MEL-2 > 100 µM | Malme-3M > 100 µM | HL-60 43 µM | UACC-62 5.21 µM | HOP-92 5.36 µM | COLO 205 53.1 µM | DU-145 > 100 µM | Hs-578T > 100 µM
60.7 µM: HCT-15

N/C(CCSCCSCC/C(N)=N\O)=N\O
inactive: SNB-75 > 100 µM | K562 > 100 µM | LOX IMVI > 100 µM | CAKI-1 > 100 µM | UO-31 > 100 µM | NCI-H226 > 100 µM | 786-0 > 100 µM | NCI-H460 > 100 µM | SW-620 > 100 µM | Malme-3M > 100 µM | HOP-62 > 100 µM | HL-60 > 100 µM | UACC-62 > 100 µM | HOP-92 > 100 µM | COLO 205 > 100 µM | DU-145 > 100 µM | Hs-578T > 100 µM
> 100 µM: HCT-15

CC(=O)OC1COC(Nn2c(=O)[nH]c3ccccc3c2=O)C(OC(C)=O)C1OC(C)=O (configuration not stated)
> 100 µM: HCT-15
inactive: SNB-75 30.3 µM | K562 > 100 µM | LOX IMVI > 100 µM | CAKI-1 > 100 µM | UO-31 81.1 µM | NCI-H226 51.9 µM | 786-0 > 100 µM | NCI-H460 > 100 µM | SW-620 > 100 µM | SK-MEL-2 > 100 µM | SF-295 > 100 µM | HOP-62 > 100 µM | HL-60 > 100 µM | UACC-62 > 100 µM | HOP-92 > 100 µM | COLO 205 > 100 µM | DU-145 > 100 µM | Hs-578T 13.6 µM

COc1ccc2c(=O)c3ccoc3[nH]c2c1
> 100 µM: HCT-15
inactive: SNB-75 > 100 µM | K562 > 100 µM | LOX IMVI > 100 µM | CAKI-1 > 100 µM | UO-31 > 100 µM | NCI-H226 > 100 µM | 786-0 > 100 µM | NCI-H460 > 100 µM | SW-620 > 100 µM | SK-MEL-2 > 100 µM | SF-295 > 100 µM | HOP-62 > 100 µM | HL-60 > 100 µM | UACC-62 > 100 µM | HOP-92 > 100 µM | COLO 205 > 100 µM | DU-145 > 100 µM | Hs-578T 80.9 µM

O=C(CCCN1CCC2(CC1)CC(=O)N(N1CCCCCC1)C2=O)c1ccccc1
inactive: SNB-75 > 100 µM | K562 70.8 µM | LOX IMVI > 100 µM | CAKI-1 > 100 µM | UO-31 > 100 µM | NCI-H226 > 100 µM | 786-0 > 100 µM | SK-MEL-2 > 100 µM | SF-295 > 100 µM | Malme-3M > 100 µM | HOP-62 > 100 µM | HL-60 > 100 µM | UACC-62 > 100 µM | HOP-92 > 100 µM | COLO 205 > 100 µM | DU-145 > 100 µM | Hs-578T > 100 µM
> 100 µM: HCT-15

O=C(/C=C1\N=C(c2ccccc2)N(c2nc3ccc(Sc4ccccc4)cc3[nH]2)C1=O)/C=C/c1ccccc1
inactive: SNB-75 16.7 µM | K562 26.2 µM | LOX IMVI 17.4 µM | CAKI-1 31.3 µM | UO-31 53.3 µM | 786-0 33.3 µM | NCI-H460 30.2 µM | SW-620 33.9 µM | SK-MEL-2 18.7 µM | SF-295 28.2 µM | Malme-3M 34.7 µM | HOP-62 39.7 µM | HL-60 20.8 µM | UACC-62 22.9 µM | HOP-92 37.8 µM | COLO 205 16.5 µM | DU-145 28.1 µM | Hs-578T 26.4 µM
33.1 µM: HCT-15

C=C1C(C(O)C[C@H](C)C2O[C@@]3(CCCCO3)CCC2C)O[C@@H]2CCC3(CCC(/C=C/[C@@H](C)C4CC(C)=CC5(O4)O[C@H](C[C@](C)(O)C(=O)O)CCC5O)O3)OC2[C@@H]1O (some centres not stated)
< 0.0163 µM: HCT-15
active: SNB-75 0.000608 µM | K562 0.00429 µM | LOX IMVI 0.004 µM | CAKI-1 0.0107 µM | UO-31 0.0527 µM | NCI-H226 0.00405 µM | 786-0 0.00912 µM | NCI-H460 0.00408 µM | SW-620 0.0134 µM | SK-MEL-2 0.00253 µM | SF-295 0.00578 µM | Malme-3M 0.000764 µM | HL-60 0.00408 µM | UACC-62 0.00347 µM | HOP-92 0.00375 µM | COLO 205 0.00376 µM | DU-145 0.00908 µM | Hs-578T 0.00318 µM

Cc1ccc(NCCN(C)C)c2c(=O)c3cc(O)ccc3oc12
active: NCI-H460 0.889 µM
9.08 µM: HCT-15
inactive: SNB-75 4.79 µM | K562 4.09 µM | LOX IMVI 9.53 µM | CAKI-1 10.6 µM | UO-31 9.2 µM | NCI-H226 15.8 µM | 786-0 5.24 µM | SW-620 4.12 µM | SK-MEL-2 20.6 µM | SF-295 10.9 µM | Malme-3M 13.9 µM | HOP-62 11 µM | HL-60 2.29 µM | UACC-62 10.1 µM | HOP-92 11.1 µM | COLO 205 10.8 µM | DU-145 15.1 µM | Hs-578T 6.41 µM

O=C1Nc2ccc(Br)cc2/C1=N/NC(=S)Nc1ccc([N+](=O)[O-])cc1
inactive: SNB-75 16 µM | K562 9.48 µM | LOX IMVI 8.81 µM | CAKI-1 4.06 µM | NCI-H226 15.9 µM | 786-0 8.91 µM | NCI-H460 5.47 µM | SW-620 6.81 µM | SK-MEL-2 13.7 µM | SF-295 6.08 µM | Malme-3M 5.98 µM | HOP-62 11.4 µM | HL-60 1.75 µM | UACC-62 5.5 µM | HOP-92 9.77 µM | COLO 205 21.7 µM | DU-145 11.9 µM | Hs-578T 14.2 µM
2.69 µM: HCT-15

COc1c(OC)c(OC)c(-c2cc(=O)c3c(OC)c(OC)c(OC)c(OC)c3o2)c(OC)c1OC
26.7 µM: HCT-15
inactive: SNB-75 57.5 µM | K562 41.1 µM | LOX IMVI 30.9 µM | CAKI-1 43.4 µM | UO-31 29.2 µM | NCI-H226 54.2 µM | 786-0 21.5 µM | NCI-H460 31.3 µM | SW-620 30 µM | SK-MEL-2 56.6 µM | SF-295 40.2 µM | Malme-3M 47 µM | HOP-62 81.8 µM | HL-60 37.2 µM | UACC-62 34.3 µM | HOP-92 21.3 µM | COLO 205 37.4 µM | DU-145 62.5 µM | Hs-578T 52.5 µM

Cc1ccc(S(=O)(=O)NC(=O)Nc2nc[nH]n2)cc1
inactive: SNB-75 > 100 µM | K562 > 100 µM | CAKI-1 > 100 µM | UO-31 > 100 µM | NCI-H226 > 100 µM | 786-0 > 100 µM | NCI-H460 > 100 µM | SW-620 > 100 µM | SK-MEL-2 > 100 µM | SF-295 > 100 µM | Malme-3M > 100 µM | HOP-62 > 100 µM | HL-60 > 100 µM | UACC-62 > 100 µM | HOP-92 > 100 µM | COLO 205 > 100 µM | DU-145 > 100 µM | Hs-578T > 100 µM
> 100 µM: HCT-15
